Test results from ChEMBL document CHEMBL1201862, “PubChem BioAssay data set” (2004).
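In this assay, cells in 96-well plates receive the compound at five concentrations for 48 hours. Endpoints are linearly interpolated between the surrounding concentrations. Abbreviation: GI50, concentration required for 50% inhibition of growth.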 The source made the active and inactive calls. Cut-off read from the data, not from the text of the source: active = GI50 up to about 1.1 µM and inactive = higher.

Assays:
Experiment in all cases: growth of human tumour cells (NCI), 48 h
[1] = tested on: SK-MEL-5
[2] = tested on: OVCAR-5
[3] = tested on: Malme-3M
[4] = tested on: OVCAR-3
[5] = tested on: SW-620
[6] = tested on: OVCAR-8
[7] = tested on: NCI-H23
[8] = tested on: SF-539
[9] = tested on: CAKI-1
[10] = tested on: ACHN
[11] = tested on: U-251
[12] = tested on: NCI-H226
[13] = tested on: KM12
[14] = tested on: TK-10
[15] = tested on: UO-31
[16] = tested on: SNB-75
[17] = tested on: SF-268
[18] = tested on: HL-60
[19] = tested on: RPMI-8226
[20] = tested on: SK-MEL-2

Compound	GI50 [1]	GI50 [2]	GI50 [3]	GI50 [4]	GI50 [5]	GI50 [6]	GI50 [7]	GI50 [8]	GI50 [9]	GI50 [10]	GI50 [11]	GI50 [12]	GI50 [13]	GI50 [14]	GI50 [15]	GI50 [16]	GI50 [17]	GI50 [18]	GI50 [19]	GI50 [20]
COc1cc(C2c3[nH]c4ccccc4c3[C@@H](Nc3ccc(F)cc3)[C@H]3COC(=O)N23)cc(OC)c1O (stereo partly specified)	1.14 µM (inactive)	1.79 µM (inactive)	2.49 µM (inactive)	1.92 µM (inactive)	1.23 µM (inactive)	2.7 µM (inactive)	1.42 µM (inactive)	1.26 µM (inactive)	0.828 µM (active)	0.248 µM (active)	1.45 µM (inactive)	0.815 µM (active)	1.91 µM (inactive)	1.97 µM (inactive)	1.09 µM (active)	1.69 µM (inactive)	1.55 µM (inactive)			
O=C1C[C@@H](C(=O)OCc2ccccc2)NC(=O)C[C@@H](C(=O)OCc2ccccc2)NC(=O)C[C@@H](C(=O)OCc2ccccc2)N1	> 100 µM (inactive)	> 100 µM (inactive)		> 100 µM (inactive)	> 100 µM (inactive)	> 100 µM (inactive)	47 µM (inactive)	18.5 µM (inactive)	> 100 µM (inactive)	23 µM (inactive)	12.1 µM (inactive)	> 100 µM (inactive)	> 100 µM (inactive)	19.6 µM (inactive)	> 100 µM (inactive)	1.06 µM (active)	15.2 µM (inactive)	0.659 µM (active)	38.8 µM (inactive)	13 µM (inactive)
CC(C)(C)[Si](C)(C)OCC1CCC(n2cnc3c(N)ncnc32)O1 (stereo unspecified)	17.1 µM (inactive)	> 100 µM (inactive)		48.9 µM (inactive)	> 100 µM (inactive)	45.4 µM (inactive)	30.6 µM (inactive)		> 100 µM (inactive)		> 100 µM (inactive)	> 100 µM (inactive)	39.1 µM (inactive)	> 100 µM (inactive)	44.4 µM (inactive)	67.8 µM (inactive)		48.9 µM (inactive)	42 µM (inactive)	32.1 µM (inactive)
CC1=C2C(=C[C@H]3[C@]4(C)CCCC(C)(C)[C@H]4CC[C@]34O[C@H]24)OC1=O	> 100 µM (inactive)	> 100 µM (inactive)	> 100 µM (inactive)		> 100 µM (inactive)		> 100 µM (inactive)			> 100 µM (inactive)	> 100 µM (inactive)	> 100 µM (inactive)	> 100 µM (inactive)	> 100 µM (inactive)	> 100 µM (inactive)	> 100 µM (inactive)	> 100 µM (inactive)		> 100 µM (inactive)	> 100 µM (inactive)
O=C(O)/C=C/c1c[nH]cn1	> 232 µM (inactive)	> 500 µM (inactive)	> 500 µM (inactive)	> 500 µM (inactive)	> 500 µM (inactive)	> 500 µM (inactive)	> 500 µM (inactive)	> 500 µM (inactive)	> 500 µM (inactive)		> 500 µM (inactive)	> 500 µM (inactive)	> 500 µM (inactive)		> 500 µM (inactive)	> 500 µM (inactive)			> 500 µM (inactive)	> 500 µM (inactive)
CCOP(=O)(OCC)/C(C#N)=C/c1cccn1Cc1ccccc1	16.1 µM (inactive)	83.2 µM (inactive)	32.3 µM (inactive)	40.6 µM (inactive)	25.8 µM (inactive)	33.6 µM (inactive)	31.3 µM (inactive)	18.5 µM (inactive)	42.2 µM (inactive)	34.4 µM (inactive)	22.6 µM (inactive)	20.7 µM (inactive)	26.9 µM (inactive)	40.9 µM (inactive)	24.4 µM (inactive)	39.9 µM (inactive)	43.5 µM (inactive)			21.3 µM (inactive)
Brc1ccc(C2CC(c3cccc4ccccc34)=Nc3ccccc3S2)cc1 (stereo unspecified)	> 100 µM (inactive)	> 100 µM (inactive)			16.7 µM (inactive)	> 100 µM (inactive)	86.5 µM (inactive)	> 100 µM (inactive)	> 100 µM (inactive)	> 100 µM (inactive)	30.2 µM (inactive)	> 100 µM (inactive)	70.5 µM (inactive)	> 100 µM (inactive)	54.3 µM (inactive)	> 100 µM (inactive)	> 100 µM (inactive)	26.4 µM (inactive)	10.9 µM (inactive)	> 100 µM (inactive)
CC(=O)N(CCN1C(=O)c2ccccc2C1=O)CCN1C(=O)c2ccccc2C1=O	> 100 µM (inactive)			> 100 µM (inactive)	> 100 µM (inactive)	> 100 µM (inactive)	> 100 µM (inactive)		> 100 µM (inactive)	> 100 µM (inactive)	> 100 µM (inactive)		> 100 µM (inactive)	> 100 µM (inactive)	> 100 µM (inactive)	> 100 µM (inactive)	> 100 µM (inactive)	> 100 µM (inactive)	> 100 µM (inactive)	> 100 µM (inactive)
Cc1nnc2sc(N/N=C/c3ccccc3)nn12	> 100 µM (inactive)	> 100 µM (inactive)	> 100 µM (inactive)	> 100 µM (inactive)	> 100 µM (inactive)	> 100 µM (inactive)	> 100 µM (inactive)	> 100 µM (inactive)	> 100 µM (inactive)	> 100 µM (inactive)	> 100 µM (inactive)	> 100 µM (inactive)	> 100 µM (inactive)	> 100 µM (inactive)	> 100 µM (inactive)	> 100 µM (inactive)	61.2 µM (inactive)		> 100 µM (inactive)	> 100 µM (inactive)
COc1ccc(-c2nnc3c4ccccc4sn23)cc1	34.4 µM (inactive)	> 100 µM (inactive)		17.1 µM (inactive)	49 µM (inactive)	32.5 µM (inactive)	13.3 µM (inactive)	32.7 µM (inactive)		28 µM (inactive)	23.4 µM (inactive)		19.3 µM (inactive)	> 100 µM (inactive)	14.3 µM (inactive)	10.2 µM (inactive)	22.5 µM (inactive)	15.9 µM (inactive)	19.1 µM (inactive)	19 µM (inactive)
CC1(C)CNC(=O)C2(/C=N/C(C)(C)CNC(=O)C3(/C=N/1)CCCO3)CCCO2 (stereo unspecified)	> 10 µM (inactive)		> 10 µM (inactive)	> 10 µM (inactive)	> 10 µM (inactive)	> 10 µM (inactive)	> 10 µM (inactive)	> 10 µM (inactive)	> 10 µM (inactive)	> 10 µM (inactive)	> 10 µM (inactive)		> 10 µM (inactive)	> 10 µM (inactive)		> 10 µM (inactive)	> 10 µM (inactive)	> 10 µM (inactive)	> 10 µM (inactive)	
COc1c(Cl)cc(S(=O)O)cc1Cl		> 100 µM (inactive)	> 100 µM (inactive)	> 100 µM (inactive)			> 100 µM (inactive)	> 100 µM (inactive)		> 100 µM (inactive)	> 100 µM (inactive)		> 100 µM (inactive)	> 100 µM (inactive)	> 100 µM (inactive)	> 100 µM (inactive)	> 100 µM (inactive)	> 100 µM (inactive)		> 100 µM (inactive)
